The values that follow come from ChEMBL document CHEMBL2424546, “Synthesis, transformation and biological evaluation of 2,3-secotriterpene acetylhydrazones and their derivatives” (Eur J Med Chem, 2013).

A short description of data set [1]: Therapeutic index, ratio of IC50 for pig PEK cells to EC50 for vesicular stomatitis virus Indiana infected in pig PEK cells. It counts as cell-based. To be noted: read-out: Ratio IC50/EC50.
The subject of data set [2] is Vesicular stomatitis Indiana virus. Description: Antiviral activity against vesicular stomatitis virus Indiana infected in pig PEK cells assessed as inhibition of virus replication after 48 hrs by MTT assay. It counts as functional, organism-based.
A short description of data set [3]: Cytotoxicity against pig PEK cells after 48 hrs by MTT assay. The data set is classed as cell-based, Sus scrofa. On the technique in general: Tetrazolium assays rely on reduction of a dye to a coloured formazan, in cell work by metabolically active cells.
For the next data set, the system named is A549. As to the kind of experiment: Cytotoxicity against human A549 cells after 72 hrs ny MTT assay. To be noted: A549, 72 h. The data set is classed as cell-based.
Data set [4] can be described thus: Cytotoxicity against human MS cells after 72 hrs ny MTT assay. It counts as cell-based.
Data set [5] can be described thus: Cytotoxicity against human TE-32 cells after 72 hrs ny MTT assay. Particulars: RD; call rule not given here. It counts as cell-based.
Data set [6] is described as follows: Induction of apoptosis in human RD cells assessed as viable cells at 10.9 uM after 6 hrs by annexinV-FITC/propidium iodide staining-based flow cytometry (reference value: 96.85%). Particulars: read-out: Activity. It counts as cell-based.
Data set [7] has as its system RD. As to the kind of experiment: Induction of apoptosis in human RD cells at 10.9 uM after 6 hrs by annexinV-FITC/propidium iodide staining-based flow cytometry relative to control. It counts as cell-based. On the technique in general: Flow cytometry measures light scatter and fluorescence of single cells or particles in a stream.
Data set [8] relates to RD. As to the kind of experiment: Induction of apoptosis in human RD cells assessed as early apoptotic cells at 10.9 uM after 6 hrs by annexinV-FITC/propidium iodide staining-based flow cytometry (reference value: 1.21%). The data set is classed as cell-based.
The test system of data set [9] is RD. As to the kind of experiment: Induction of apoptosis in human RD cells assessed as damaged cells at 10.9 uM after 6 hrs by annexinV-FITC/propidium iodide staining-based flow cytometry (reference value: 0.84%). It counts as cell-based.
In data set [10] the test system is RD. As to the kind of experiment: Induction of apoptosis in human RD cells assessed as late apoptotic/necrotic cells at 10.9 uM after 6 hrs by annexinV-FITC/propidium iodide staining-based flow cytometry (reference value: 1.20%). It counts as cell-based.
Data set [11] has as its system RD. As to the kind of experiment: Induction of apoptosis in human RD cells assessed as early apoptotic cells at 4.5 uM after 6 hrs by annexinV-FITC/propidium iodide staining-based flow cytometry (reference value: 1.21%). It counts as cell-based.
Data set [12] can be described thus: Induction of apoptosis in human RD cells assessed as viable cells at 4.5 uM after 6 hrs by annexinV-FITC/propidium iodide staining-based flow cytometry (reference value: 96.85%). It counts as cell-based. To be noted: read-out: Activity.
Data set [13] concerns RD. Description: Induction of apoptosis in human RD cells assessed as late apoptotic/necrotic cells at 4.5 uM after 6 hrs by annexinV-FITC/propidium iodide staining-based flow cytometry (reference value: 1.20%). It counts as cell-based.
Data set [14] deals with RD. As to the kind of experiment: Induction of apoptosis in human RD cells assessed as damaged cells at 4.5 uM after 6 hrs by annexinV-FITC/propidium iodide staining-based flow cytometry (reference value: 0.84%). The data set is classed as cell-based.
Setting [15] is: Vesicular stomatitis Indiana virus, PEK, 48 h, read-out: EC50.

One may read the EC50 as the concentration that produces a half-maximal response. On to `CC(=O)N/N=C/C(C)(C)[C@@H]1CC[C@]2(C)[C@H](CC[C@@H]3[C@H]4[C@H]5OC[C@@]4(CCC5(C)C)CC[C@]32C)[C@@]1(C)CC#N`, for which, in data set [1], the selectivity ratio amounted to 149. Moreover, in [2] (setting [15]), the EC50 was determined as 0.41 µM.
For `C=C(C)[C@@H]1CC[C@]2(C(=O)OC)CC[C@]3(C)[C@H](CC[C@@H]4[C@@](C)(CC#N)[C@H](C(C)(C)/C=N/NC(C)=O)CC[C@]43C)[C@@H]12`, in that order: 37 and 1.58 µM.
The IC50 is the point on the concentration scale where inhibition reaches its midpoint. Regarding `C=C(C)[C@@H]1CC[C@]2(C(=O)OC)CC[C@]3(C)[C@H](CC[C@@H]4[C@@](C)(CC#N)[C@H](C(C)(C)[C@@H]5OC(C)=NN5C(C)=O)CC[C@]43C)[C@@H]12`, the selectivity ratio in data set [1] amounted to 5. In addition, the Activity entry in data set [3] was “Toxic”. The IC50 with A549 was 133 µM; in data set [4] it was 110 µM; in data set [5] it was greater than 200 µM. Also, in data set [2] (setting [15]), the EC50 was determined as 0.34 µM.
Consider `C=C(C)[C@@H]1CC[C@]2(C(=O)OC)CC[C@]3(C)[C@H](CC[C@@H]4[C@@](C)(CC#N)[C@H](C(C)(C)[C@H]5OC(C)=NN5C(C)=O)CC[C@]43C)[C@@H]12`, for which the selectivity ratio in data set [1] worked out at 3. For the same compound, the Activity entry is given as “Toxic” in data set [3], 3.83% in the data set on RD [8], 1.51% with RD [9] and 2.21% in the data set on RD [10]. In addition, the values for the IC50 (with A549; in data set [4]; in data set [5]) were 18.6 µM, 5.84 µM and 10.9 µM, respectively. In data set [6], the viability at 6 h, 10.9 µM was 92.5%. The “fold change (FC)” value with RD [7] is given as 3. Moreover, the EC50 in data set [2] (setting [15]) was 0.62 µM.
As to `C=C(C)[C@@H]1CC[C@]2(C(=O)OC)CC[C@]3(C)[C@H](CC[C@@H]4[C@@](C)(CC#N)[C@H](C(C)(C)/C=N/N(C(C)=O)C(C)=O)CC[C@]43C)[C@@H]12`, in data set [1], the selectivity ratio turned out to be 2. Besides, the EC50 entry in data set [2] (pek) was “Not Active”.
On to `C=C(C)[C@@H]1CC[C@]2(C(=O)NC(C)C)CC[C@]3(C)[C@H](CC[C@@H]4[C@@](C)(CC#N)[C@H](C(C)(C)/C=N/NC(C)=O)CC[C@]43C)[C@@H]12`, for which the EC50 result in data set [2] (pek) is listed as “Not Active”.
Consider `CC(=O)N(/N=C/C(C)(C)[C@@H]1CC[C@]2(C)[C@H](CC[C@@H]3[C@H]4[C@H]5OC[C@@]4(CCC5(C)C)CC[C@]32C)[C@@]1(C)CC#N)C(C)=O`, for which the selectivity ratio in data set [1] stood at 8. The EC50 in data set [2] (setting [15]) is 15.9 µM.
Turning to `CC(=O)N1N=C(C)O[C@@H]1C(C)(C)[C@@H]1CC[C@]2(C)[C@H](CC[C@@H]3[C@H]4[C@H]5OC[C@@]4(CCC5(C)C)CC[C@]32C)[C@@]1(C)CC#N`, the half-maximal inhibitory concentration (IC50) in the data set on A549 was found to be 147 µM; in data set [4], 11.5 µM; in [5] it was 82.2 µM. In data set [2] (pek), the EC50 entry is “Not Active”.
Regarding `C=C(C)[C@@H]1CC[C@]2(C(=O)O)CC[C@]3(C)[C@H](CC[C@@H]4[C@@]5(C)CC[C@H](O)C(C)(C)[C@@H]5CC[C@]43C)[C@@H]12` [BETULINIC ACID], the selectivity ratio in data set [1] came out at 0.07. Besides, the IC50 amounted to 44 µM with A549, 16 µM in data set [4] and 23.9 µM in data set [5]. In [2] (setting [15]), the EC50 came to 160 µM.
With `COC(=O)[C@@]1(C)CC[C@]2(C)CC[C@]3(C)C(=CC(=O)[C@@H]4[C@@](C)(CC#N)[C@H](C(C)(C)[C@H]5OC(C)=NN5C(C)=O)CC[C@]43C)[C@@H]2C1`, the IC50 was determined as 133 µM in the data set with A549, 88.7 µM in data set [4] and 166 µM in data set [5].
Regarding `C=C(C)[C@@H]1CC[C@]2(C(=O)NCCC(=O)OCC)CC[C@]3(C)[C@H](CC[C@@H]4[C@@](C)(CC#N)[C@H](C(C)(C)/C=N/NC(C)=O)CC[C@]43C)[C@@H]12`, the EC50 result in data set [2] (pek) was “Not Active”.
For `COC(=O)[C@@]1(C)CC[C@]2(C)CC[C@]3(C)C(=CC(=O)[C@@H]4[C@@](C)(CC#N)[C@H](C(C)(C)[C@@H]5OC(C)=NN5C(C)=O)CC[C@]43C)[C@@H]2C1`, the IC50 in the data set on A549 was greater than 200 µM; in data set [4] it was 71.2 µM; in data set [5] it was greater than 200 µM.
Turning to `CC(=O)N1N=C(C)O[C@H]1C(C)(C)[C@@H]1CC[C@]2(C)[C@H](CC[C@@H]3[C@H]4[C@H]5OC[C@@]4(CCC5(C)C)CC[C@]32C)[C@@]1(C)CC#N`, the figures for the IC50 (with A549; in [4]; in data set [5]) were 95.5 µM, 40.3 µM and 85 µM, respectively. Further, the EC50 entry in data set [2] (pek) is reported as “Not Active”.
With `CC[C@@]1(O)C(=O)OCc2c1cc1n(c2=O)Cc2cc3ccccc3nc2-1` [CAMPTOTHECIN], the values for the IC50 (with A549; in data set [4]; in [5]) were 37.1 µM, 0.23 µM and 4.47 µM, respectively. For the same compound, the Activity in the data set on RD [11] amounted to 4.08%; with RD [13], 3.1%; in the data set on RD [14], 0.67%. The viability at 6 h, 4.5 µM in data set [12] came to 92.2%.
For the compound `COC(=O)[C@@]1(C)CC[C@]2(C)CC[C@]3(C)C(=CC(=O)[C@@H]4[C@@](C)(CC#N)[C@H](C(C)(C)/C=N/NC(C)=O)CC[C@]43C)[C@@H]2C1`, in [1], the selectivity ratio was 2. In addition, in [2] (setting [15]), the EC50 came out at 18.4 µM.
